{"source": "patent US10603345B2", "about": "“Pharmaceutical composition for treating respiratory disease” (Kunming Institute of Botany, The Chinese Academy of Sciences, priority 2015, dated 2020)", "type_in_all_cases": "in vivo", "key": {"[1]": {"test_system": "Col-1 in homogenate of pulmonary fibrosis model mouse", "assay": "Effect on Col-1 in homogenate of pulmonary fibrosis model mouse", "conditions": "ELISA, bleomycin pulmonary fibrosis mouse, ig 28 d, dose/kg: prednisone acetate 5 mg, Test group 1 50, 2 25, 3 12.5, picrinine 5.0, vallesamine 3.0, scholaricine 3.5, 19-epi-scholaricine 1.0 mg, x ± SD", "description": "(§1) Animal source: 30˜35 g male ICR mouse, from laboratory animal department of Kunming Medical University, License No. SCXK (Dian) 2011-0004.\n(§2) Method and route: bleomycin was used to induce mouse pulmonary fibrosis, and after intragastrical administration for 28 d at a dose of 20 mL/kg, the animal was sacrificed at the 29th day.\n(§3) Group and dose: Sham group, Model group, Positive control group, prednisone acetate (5 mg/kg) group, Test group 1: picrinine, vallesamine, scholaricine and 19-epischolaricine prepared in Example 1.7 were mixed at different ratios by weight (50 mg/kg), Test group 2: the alkaloid composition (25 mg/kg) prepared in Example 1.5, Test group 3: the alkaloid composition (12.5 mg/kg) prepared in Example 1.6, Picrinine group (5.0 mg/kg), Vallesamine group (3.0 mg/kg), Scholaricine group (3.5 mg/kg), and 19-epischolaricine group (1.0 mg/kg).\n(§4) Positive control drug: prednisone acetate tablet, Approval number: H33021207, 5 mg/tablet, produced by Zhejiang Xianju Pharmaceutical Co., Ltd., Batch No. 140146.\n(§5) Sample preparation: all the samples were prepared by using 0.5% carboxymethylcellulose sodium (0.5% CMC-Na).\nGroup and dose: in Test group 1, the ratio of picrinine, vallesamine, scholaricine and 19-epischolaricine by weight was 20:17:17:4, and the other groups and doses thereof were as described in Example 12.\nTest index: Col-1 in homogenate was used as index, and was determined by enzyme linked immunosorbent assay."}, "[2]": {"test_system": "SOD in serum and homogenate of pulmonary fibrosis model mouse", "assay": "Effect on SOD in serum and homogenate of pulmonary fibrosis model mouse", "conditions": "bleomycin pulmonary fibrosis mouse, ig 28 d, dose/kg: prednisone acetate 5 mg, Test group 1 50, 2 25, 3 12.5, picrinine 5.0, vallesamine 3.0, scholaricine 3.5, 19-epi-scholaricine 1.0 mg, x ± SD", "description": "as §1, §2, §3, §4, §5\nGroup and dose: in Test group 1, the ratio of picrinine, vallesamine, scholaricine and 19-epischolaricine by weight was 10:7:7:2, and the other groups and doses thereof were as described in Example 12.\nTest index: SOD in serum and homogenate was used as index, and was determined by xanthine oxidase method."}, "[3]": {"test_system": "KL-6 in serum of pulmonary fibrosis model mouse", "assay": "Effect on KL-6 in serum of pulmonary fibrosis model mouse", "conditions": "ELISA, bleomycin pulmonary fibrosis mouse, ig 28 d, dose/kg: prednisone acetate 5 mg, Test group 1 50, 2 25, 3 12.5, picrinine 5.0, vallesamine 3.0, scholaricine 3.5, 19-epi-scholaricine 1.0 mg, x ± SD", "description": "as §1, §2, §3, §4, §5\nGroup and dose: in Test group 1, the ratio of picrinine, vallesamine, scholaricine and 19-epischolaricine by weight was 45:38:30:8, and the other groups and doses thereof were as described in Example 12.\nTest index: KL-6 in serum was used as index, and was determined by enzyme linked immunosorbent assay."}, "[4]": {"test_system": "Hyp in homogenate of pulmonary fibrosis model mouse", "assay": "Effect on Hyp in homogenate of pulmonary fibrosis model mouse", "conditions": "bleomycin pulmonary fibrosis mouse, ig 28 d, dose/kg: prednisone acetate 5 mg, Test group 1 50, 2 25, 3 12.5, picrinine 5.0, vallesamine 3.0, scholaricine 3.5, 19-epi-scholaricine 1.0 mg, x ± SD", "description": "as §1, §2, §3, §4\n(§6) Sample preparation: all the samples were prepared by using 0.5% carboxymethylcellulose sodium (0.5% CMC-Na). […]\nTest index: Hyp in homogenate was used as index, and was determined by enzyme linked immunosorbent assay."}, "[5]": {"test_system": "LDH in serum of pulmonary fibrosis model mouse", "assay": "Effect on LDH in serum of pulmonary fibrosis model mouse", "conditions": "bleomycin pulmonary fibrosis mouse, ig 28 d, dose/kg: prednisone acetate 5 mg, Test group 1 50, 2 25, 3 12.5, picrinine 5.0, vallesamine 3.0, scholaricine 3.5, 19-epi-scholaricine 1.0 mg, x ± SD", "description": "as §1, §2, §3, §4, §6\nTest index: LDH in serum was used as index, and was determined by 2, 4-dinitrophenylhydrazine method."}, "[6]": {"test_system": "MDA in serum and homogenate of pulmonary fibrosis model mouse", "assay": "Effect on MDA in serum and homogenate of pulmonary fibrosis model mouse", "conditions": "bleomycin pulmonary fibrosis mouse, ig 28 d, dose/kg: prednisone acetate 5 mg, Test group 1 50, 2 25, 3 12.5, picrinine 5.0, vallesamine 3.0, scholaricine 3.5, 19-epi-scholaricine 1.0 mg, x ± SD", "description": "as §1, §2, §3, §4, §5\nGroup and dose: in Test group 1, the ratio of picrinine, vallesamine, scholaricine and 19-epischolaricine by weight was 8:5:5:1, and the other groups and doses thereof were as described in Example 12.\nTest index: MDA in serum and homogenate was used as index, and was determined by thiobabituric acid method."}}}
{"smiles": "CC(=O)OCC(=O)[C@@]1(O)CC[C@H]2[C@@H]3CCC4=CC(=O)C=C[C@]4(C)[C@H]3C(=O)C[C@@]21C", "note": "[prednisone acetate, reference compound]", "values": [{"measurement": "Col-1", "setting": "[1]", "value": "6.0 ± 2.1", "unit": "μg/g prot"}, {"measurement": "SOD homogenate", "setting": "[2]; homogenate", "value": "60.0 ± 15.9", "unit": "U/mg prot"}, {"measurement": "SOD Serum", "setting": "[2]; serum", "value": "15.5 ± 3.8", "unit": "U/mg prot"}, {"measurement": "KL-6", "setting": "[3]", "value": "3.00 ± 1.00", "unit": "U/mg prot"}, {"measurement": "Hyp", "setting": "[4]", "value": "2.9 ± 0.8", "unit": "μg/g prot"}, {"measurement": "LDH", "setting": "[5]", "value": "10.5 ± 3.4", "unit": "U/g prot"}, {"measurement": "MDA Homogenate", "setting": "[6]; homogenate", "value": "19.0 ± 6.6", "unit": "nmol/mg prot"}, {"measurement": "MDA Serum", "setting": "[6]; serum", "value": "0.55 ± 0.17", "unit": "nmol/mg prot"}]}
